Experiments:
[1] = Log P by HPLC on reversed phase columns (EEC directive 79/831 Annex V.A8); format: physicochemical; details: for chromatographic logP: reversed phase HPLC columns
Procedure: In the above tables, measurement of Log P values was performed according to EEC directive 79/831 Annex V.A8 by HPLC (High Performance Liquid Chromatography) on reversed phase columns with the following methods: • ^[a]
If more than one Log P value is available within the same method, all the values are given and separated by “+”.
Calibration was done with straight-chain alkan2-ones (with 3 to 16 carbon atoms) with known Log P values (measurement of Log P values using retention times with linear interpolation between successive alkanones). Lambda-max-values were determined using UV-spectra from 200 nm to 400 nm and the peak values of the chromatographic signals.

[2] = tested on: Xanthomonas campestris pv. campestris; assay: Xanthomonas campestris pv. campestris in vitro cell test (bacteria growth in liquid culture); format: cell-based; details: 20 ppm of tested compound; 24 h of incubation
Procedure: Example A: Xanthomonas Campestris pv. Campestris In Vitro Cell Test
Culture medium: LB broth medium (Luria Broth Miller) Sigma
Inoculum: bacteria suspension
Compounds to be tested were solubilized in DMSO and the solution used to prepare the required range of concentrations. The final concentration of DMSO used in the assay was ≤1%.
Inoculum was prepared from a pre-culture of bacteria grown in liquid medium and diluted to the desired optical density (OD).
Compounds were evaluated for their ability to inhibit bacteria growth in liquid culture assay. The compounds were added in the desired concentrations to culture medium containing the bacteria suspension. After 24 h of incubation, the efficacy of compounds was determined by spectrometric measurement of bacteria growth. Inhibition was determined by comparing the absorbance values in wells containing the compounds with the absorbance in control wells without compounds.

[3] = value given in preparation example, method variant not stated
[4] = method [a]: LC-UV, acidic range, 0.1% formic acid in water and acetonitrile as eluent

| LogP [1, 4] | Structure (SMILES) | other results |
| --- | --- | --- |
| – | CCOC(=O)C1(NC(=O)c2sc(NC(=O)OC(C)(C)C)c(Br)c2C)CC1 [XIa.01, ethyl 1-[({4-bromo-5-[(tert-butoxycarbonyl)amino]-3-methyl-2-thienyl}carbonyl)amino]cyclopropanecarboxylate] | chromatographic logP ([1]; method [b]: LC-UV, neutral range, 0.001 molar ammonium acetate solution in water and acetonitrile as eluent): 3.44; chromatographic logP [1, 3]: 3.28 |
| 5.01^[a] | CCOC(=O)C(Cc1ccccc1)NC(=O)c1sc(Cl)c(Cl)c1Br (stereo not shown) [VIa.20] | – |
| 3.31^[a] | Cc1c(C(=O)NC(Cc2ccccc2)C(=O)O)sc(Cl)c1Cl (stereo not shown) [I.86] | – |
| 5.78^[a] | Cc1c(C(=O)NC(C(=O)OC[Si](C)(C)C)C(C)C)sc(Br)c1Br (stereo not shown) [I.20] | direct activity (inhibition of bacteria growth) [2]: no direct activity |
| 5.00^[a] | CCOC(=O)C(Cc1ccccc1)NC(=O)c1sc(Cl)c(Cl)c1I (stereo not shown) [VIa.24] | – |
| 3.31^[a] | CC[C@H](C)[C@H](NC(=O)c1sc(Cl)c(Cl)c1C)C(=O)O [I.83] | – |
| 3.35^[a] | CCCOC(=O)CNC(=O)c1sc(Cl)c(Cl)c1C [I.48] | direct activity (inhibition of bacteria growth) [2]: no direct activity |
| 3.79^[a] | COC(=O)C(NC(=O)c1sc(Cl)c(Cl)c1C)C(C)C (stereo not shown) [I.46] | direct activity (inhibition of bacteria growth) [2]: no direct activity |
| 2.05^[a] | Cc1c(C(=O)NCC(=O)O)sc(Cl)c1Cl [I.80] | – |
| – | Cc1c(C(=O)NC(C(=O)OCC2CC2)C(C)C)sc(Br)c1Br (stereo not shown) [I.52] | direct activity (inhibition of bacteria growth) [2]: no direct activity |
| 4.59^[a] | CCOC(=O)C(Cc1ccccc1)NC(=O)c1sc(Br)c(Br)c1C (stereo not shown) [I.65] | – |
| 4.40^[a] | CCOC(=O)C(CCSC)NC(=O)c1sc(Cl)c(Cl)c1I (stereo not shown) [VIa.23] | – |
| 3.33^[a] | CCOC(=O)C(Cc1ccc(O)cc1)NC(=O)c1sc(Br)c(Br)c1C (stereo not shown) [I.23] | direct activity (inhibition of bacteria growth) [2]: no direct activity |
| 3.30^[a] | Cc1c(C(=O)NC(Cc2ccccc2)C(=O)O)sc(Br)c1Br (stereo not shown) [I.88] | – |
| 4.37^[a] | CCOC(=O)C(NC(=O)c1sc(Cl)c(Cl)c1C)c1ccccc1 (stereo not shown) [I.75] | – |
| 2.51^[a] | COC(=O)CNC(=O)c1sc(Cl)c(Cl)c1C [I.31] | direct activity (inhibition of bacteria growth) [2]: no direct activity |
| – | Cc1c(C(=O)O)sc(NC(=O)OC(C)(C)C)c1Br [XIIIa.02, 4-bromo-5-[(tert-butoxycarbonyl)amino]-3-methylthiophene-2-carboxylic acid] | chromatographic logP [1, 4]: 2.86 |
| 4.46^[a] | C=CCOC(=O)C(NC(=O)c1sc(Br)c(Br)c1C)C(C)C (stereo not shown) [I.58] | direct activity (inhibition of bacteria growth) [2]: no direct activity |
| 4.37^[a] | CCOC(=O)C(CCSC)NC(=O)c1sc(Br)c(Br)c1I (stereo not shown) [VIa.16] | – |
| 3.29^[a] | Cc1c(C(=O)NCC(=O)OC(C)C)sc(Cl)c1Cl [I.41] | direct activity (inhibition of bacteria growth) [2]: no direct activity |
| 2.05^[a] | Cc1c(C(=O)NCC(=O)O)sc(Br)c1Br [I.10] | direct activity (inhibition of bacteria growth) [2]: no direct activity |
| 4.32^[a] | CCOC(=O)[C@@H](NC(=O)c1sc(Br)c(Br)c1C)C(C)C [I.08] | direct activity (inhibition of bacteria growth) [2]: no direct activity |
| 4.77^[a] | CCCOC(=O)C(NC(=O)c1sc(Br)c(Br)c1C)C(C)C (stereo not shown) [I.54] | direct activity (inhibition of bacteria growth) [2]: no direct activity |
| – | CC[C@H](C)[C@H](NC(=O)c1sc(Br)c(Br)c1C)C(=O)OC [I.22] | direct activity (inhibition of bacteria growth) [2]: no direct activity |

| LogP [1, 4] | Structure (SMILES) | other results |
| --- | --- | --- |
| 3.55^[a] | COC(=O)C(CCSC)NC(=O)c1sc(Cl)c(Cl)c1C (stereo not shown) [I.35] | direct activity (inhibition of bacteria growth) [2]: no direct activity |
| – | O=C(O)c1sc(Cl)c(Cl)c1Br [VIIIa.03, 3-bromo-4,5-dichlorothiophene-2-carboxylic acid] | chromatographic logP [1, 4]: 2.52; chromatographic logP [1, 3]: 2.51 |
| 3.91^[a] | COC(=O)C(NC(=O)c1sc(Br)c(Br)c1C)C(C)C (stereo not shown) [I.63] | – |
| – | CC[C@H](C)[C@H](NC(=O)c1sc(Cl)c(Cl)c1C)C(=O)OC [I.32] | direct activity (inhibition of bacteria growth) [2]: no direct activity |
| 3.65^[a] | CCOC(=O)C(NC(=O)c1sc(Br)cc1C)C(C)C (stereo not shown) [IXa.03] | – |
| 3.39^[a] | CCOC(=O)C1(NC(=O)c2sc(Cl)c(Cl)c2I)CC1 [VIa.05] | – |
| 2.90^[a] | COC(=O)CNC(=O)c1sc(Cl)c(Cl)c1I [VIa.02] | – |
| 3.35^[a] | CCOC(=O)CNC(=O)c1sc(Br)c(Br)c1I [VIa.10] | – |
| 5.08^[a] | CCOC(=O)C(CC(C)C)NC(=O)c1sc(Cl)c(Cl)c1I (stereo not shown) [VIa.22] | – |
| 4.34^[a] | COC(=O)C(NC(=O)c1sc(Cl)c(Cl)c1C)C(C)C (stereo not shown) [I.91] | – |
| 4.46^[a] | CCOC(=O)C(CCSC)NC(=O)c1sc(Cl)c(Cl)c1Br (stereo not shown) [VIa.19] | – |
| 3.37^[a] | CC[C@H](C)[C@H](NC(=O)c1sc(Br)c(Br)c1C)C(=O)O [I.89] | – |
| – | CCOC(=O)CNC(=O)c1sc(Cl)c(Cl)c1Br [VIa.01, ethyl N-[(3-bromo-4,5-dichloro-2-thienyl)carbonyl]glycinate] | chromatographic logP [1, 4]: 3.33; chromatographic logP [1, 3]: 3.33 |
| 4.85^[a] | CCOC(=O)C(NC(=O)c1sc(Cl)c(Cl)c1I)C(C)C (stereo not shown) [VIa.21] | – |
| 3.40^[a] | Cc1c(C(=O)NCC(=O)OC(C)C)sc(Br)c1Br [I.78] | – |
| – | CCOC(=O)C1(NC(=O)c2sc(N)c(Br)c2C)CC1 [Xa.01, ethyl 1-{[(5-amino-4-bromo-3-methyl-2-thienyl)carbonyl]amino}cyclopropanecarboxylate] | chromatographic logP [1, 4]: 1.97; chromatographic logP [1, 3]: 1.92 |
| 4.66^[a] | CCOC(=O)C(CC(C)C)NC(=O)c1sc(Br)c(Br)c1C (stereo not shown) [I.69] | – |
| 2.96^[a] | COC(=O)CNC(=O)c1sc(Br)c(Br)c1I [VIa.03] | – |
| 3.90^[a] | CCOC(=O)C(Cc1ccccc1)NC(=O)c1sc(Br)cc1C (stereo not shown) [IXa.04] | – |
| 3.58^[a] | Cc1c(C(=O)NC(C(=O)OC2COC2)C(C)C)sc(Br)c1Br (stereo not shown) [I.16] | – |
| – | CCOC(=O)C(NC(=O)c1sc(Cl)c(Cl)c1C)C(C)C (stereo not shown) [I.40] | direct activity (inhibition of bacteria growth) [2]: no direct activity |
| – | COC(=O)c1sc(Cl)c(Cl)c1Br [VIIIa.02, methyl 3-bromo-4,5-dichlorothiophene-2-carboxylate] | chromatographic logP [1, 4]: 4.11; chromatographic logP [1, 3]: 3.99 |
| 4.88^[a] | CCOC(=O)C(NC(=O)c1sc(Cl)c(Cl)c1Br)C(C)C (stereo not shown) [VIa.17] | – |
| 2.49^[a] | CCOC(=O)C1(NC(=O)c2scc(Br)c2C)CC1 [IXb.01] | – |

| LogP [1, 4] | Structure (SMILES) | other results |
| --- | --- | --- |
| – | COC(=O)C1(NC(=O)c2sc(Cl)c(Cl)c2C)CC1 [I.50] | direct activity (inhibition of bacteria growth) [2]: no direct activity |
| – | Cc1c(C(=O)NC2(C(=O)O)CC2)sc(Br)c1Br [I.06] | direct activity (inhibition of bacteria growth) [2]: no direct activity |
| – | CCOC(=O)C(NC(=O)c1sc(Cl)c(Cl)c1C)C(C)C (stereo not shown) [I.44] | direct activity (inhibition of bacteria growth) [2]: no direct activity |
| – | CC/C=C\CCOC(=O)C(NC(=O)c1sc(Br)c(Br)c1C)C(C)C (stereo not shown) [I.12] | direct activity (inhibition of bacteria growth) [2]: no direct activity |
| – | CCOC(=O)C1(NC(=O)c2scc(Br)c2C)CC1 [IXa.01, ethyl 1-{[(4-bromo-3-methyl-2-thienyl)carbonyl]amino}cyclopropanecarboxylate] | chromatographic logP [1, 4]: 2.57 |
| 3.31^[a] | Cc1c(C(=O)NC(CC(C)C)C(=O)O)sc(Cl)c1Cl (stereo not shown) [I.84] | – |
| – | COC(=O)c1sc(Cl)c(Cl)c1N [methyl 3-amino-4,5-dichlorothiophene-2-carboxylate] | chromatographic logP [1, 3]: 3.11 |
| 3.31^[a] | CCOC(=O)CNC(=O)c1sc(Cl)c(Cl)c1I [VIa.12] | – |
| 2.80^[a] | CSCCC(NC(=O)c1sc(Cl)c(Cl)c1C)C(=O)O (stereo not shown) [I.85] | – |
| 4.93^[a] | CCOC(=O)C(Cc1ccccc1)NC(=O)c1sc(Br)c(Br)c1I (stereo not shown) [VIa.14] | – |
| 4.44^[a] | CCOC(=O)C(NC(=O)c1sc(Br)c(Br)c1C)c1ccccc1 (stereo not shown) [I.76] | – |
| 5.17^[a] | CCOC(=O)C(CC(C)C)NC(=O)c1sc(Cl)c(Cl)c1Br (stereo not shown) [VIa.18] | – |
| 2.39^[a] | CCOC(=O)CNC(=O)c1sc(Br)cc1C [IXa.02] | – |
| – | COC(=O)CNC(=O)c1sc(Br)c(Br)c1C [I.09] | direct activity (inhibition of bacteria growth) [2]: no direct activity |
| 2.89^[a] | CSCCC(NC(=O)c1sc(Br)c(Br)c1C)C(=O)O (stereo not shown) [I.87] | – |
| 3.69^[a] | COC(=O)C(CCSC)NC(=O)c1sc(Br)c(Br)c1C (stereo not shown) [I.70] | – |
| 2.96^[a] | Cc1c(C(=O)NC(C(=O)O)C(C)C)sc(Cl)c1Cl (stereo not shown) [I.82] | – |
| 4.37^[a] | CCOC(=O)C(NC(=O)c1sc(Br)c(Br)c1C)C(C)C (stereo not shown) [I.62] | – |
| 4.66^[a] | CCOC(=O)C(CC(C)C)NC(=O)c1sc(Br)c(Br)c1C (stereo not shown) [I.68] | – |
| 2.21^[a] | O=C(O)CNC(=O)c1sc(Cl)c(Cl)c1I [VIa.13] | – |
| – | CCOC(=O)[C@@H](NC(=O)c1sc(Cl)c(Cl)c1C)C(C)C [I.25] | direct activity (inhibition of bacteria growth) [2]: no direct activity |
| 2.28^[a] | Cc1c(C(=O)NC(C)C(=O)O)sc(Cl)c1Cl (stereo not shown) [I.81] | – |
| 5.01^[a] | CCOC(=O)C(CC(C)C)NC(=O)c1sc(Br)c(Br)c1I (stereo not shown) [VIa.15] | – |

| Structure (SMILES) | LogP [1, 4] | other results |
| --- | --- | --- |
| CCOC(=O)c1sc(NC(=O)OC(C)(C)C)c(Br)c1C [XIIIa.01] | 4.62^[a] | – |

— patent publication US11401254B2, “Substituted thiophenecarboxamides and analogues as antibacterials agents” (Bayer Aktiengesellschaft, priority 2018, dated 2022)
